Patent publication US7316989B2 (priority 2001, dated 2008)
Where two headings read alike, the source gives them in different places.

What was measured:
[1] = test system: Brown spot fungus (Cochliobolus miyabeanus); test: Rice Brown spot control test; format: in vivo; conditions: same treatment as Example 3 (10 ppm in terms of cerebroside B), counted two days after spray inoculation
[2] = test system: rice blast (leaf blast); format: in vivo, Magnaporthe grisea; conditions: rice (Koshihikari) field, spray 120 L/10 are on 44th and 51st days after transplantation; E and F 20 ppm in terms of cerebroside B, F and G with Mylinow spreader, G 500 ppm fthalide; leaf blast one month after initial application
[3] = test system: lettuce root rot fungus (Fusarium oxysporum f. sp. lactucae race SB1-1); test: Lettuce root rot control test; format: in vivo; conditions: submersion treatment, 20 ppm cerebroside B solution (H)
[4] = test system: sweet potato dead arm fungus (Fusarium oxysporum); test: Sweet potato stem rot control test; conditions: sweet potato (Benikomachi) roots submerged 30 min, 20 ppm in terms of cerebroside B; disease development of roots 26 days after transplantation
Procedure: The root parts of seedling sweet potatoes (variety: Benikomachi) infected with sweet potato dead arm fungus (Fusarium oxysporum) were submerged in each sample solution for 30 min before planting in a field. Individual plots were treated by the following sample liquids. Experimental plot (E) was treated with a liquid (concentration: 20 ppm in terms of cerebroside B) prepared by diluting ethanol extract concentrate A prepared in Example 1 by 150 times. Comparison plot (H) was treated with a liquid having a cerebroside B concentration of 20 ppm. The number of plants per plot was 20, and one plot consisted of four blocks which were provided at intervals of 60 cm. In this state, the plants were transplanted in the field.
The percentage disease development of roots was investigated 26 days after the transplantation, and the protective value was calculated from the average percentage disease development of roots.

[5] = test system: tomato verticullium wilt fungus (Verticillium dahliae); test: Tomato verticillium wilt control test; format: in vivo; conditions: submersion 12 hr, 20 ppm in terms of cerebroside B, 21st day
[6] = test system: rice blast fungus (Magnaporthe grisea, race: 007); format: in vivo

Structure (SMILES): CCCCCCCCCCCCCC[C@@H](O)C(=O)N[C@@H](CO[C@@H]1O[C@H](CO)[C@@H](O)[C@H](O)[C@H]1O)[C@H](O)/C=C/CC/C=C(\C)CCCCCCCCC [cerebroside B, (4E,8E)-N-D-2′-hydroxypalmitoyl-1-O-β-D-glucopyranosyl-9-methyl-4,8-sphingadienine]
- Protective value [1]: 87.3
- Number of lesions (average number of lesions per leaf) ([1]; control plot 10.2): 1.3
- Protective value [2]: 93
- Protective value ([3]; 28th day): 78
- Raw weight ratio on ground part ([3]; control plot = 100): 231
- Protective value [4]: 70
- Protective value [5]: 60
- Protective value ([6]; Example 4, 10 ppm in terms of cerebroside B, 2 ml per pot to foliage, plot B with 0.1% Tween 20 as spreader): 87.6
- Number of lesions (average number of lesions per leaf) ([6]; Example 4, 10 ppm in terms of cerebroside B, 2 ml per pot to foliage, plot B with 0.1% Tween 20 as spreader, control plot 18.6): 2.3
- Protective value ([6]; rice (Akitakomachi), foliar application 2 ml per pot, diluted to 10 ppm in terms of cerebroside B, inoculation 3 days after treatment, lesions counted 5 days after inoculation): 90
